From BindingDB's records for doi:10.1158/1535-7163.MCT-07-0352 (Saic-Frederick, 2007)

Target: T1, Broad substrate specificity ATP-binding cassette transporter ABCG2 (Homo sapiens, UniProt Q9UNQ0)
T1 sequence (Q9UNQ0 whole entry): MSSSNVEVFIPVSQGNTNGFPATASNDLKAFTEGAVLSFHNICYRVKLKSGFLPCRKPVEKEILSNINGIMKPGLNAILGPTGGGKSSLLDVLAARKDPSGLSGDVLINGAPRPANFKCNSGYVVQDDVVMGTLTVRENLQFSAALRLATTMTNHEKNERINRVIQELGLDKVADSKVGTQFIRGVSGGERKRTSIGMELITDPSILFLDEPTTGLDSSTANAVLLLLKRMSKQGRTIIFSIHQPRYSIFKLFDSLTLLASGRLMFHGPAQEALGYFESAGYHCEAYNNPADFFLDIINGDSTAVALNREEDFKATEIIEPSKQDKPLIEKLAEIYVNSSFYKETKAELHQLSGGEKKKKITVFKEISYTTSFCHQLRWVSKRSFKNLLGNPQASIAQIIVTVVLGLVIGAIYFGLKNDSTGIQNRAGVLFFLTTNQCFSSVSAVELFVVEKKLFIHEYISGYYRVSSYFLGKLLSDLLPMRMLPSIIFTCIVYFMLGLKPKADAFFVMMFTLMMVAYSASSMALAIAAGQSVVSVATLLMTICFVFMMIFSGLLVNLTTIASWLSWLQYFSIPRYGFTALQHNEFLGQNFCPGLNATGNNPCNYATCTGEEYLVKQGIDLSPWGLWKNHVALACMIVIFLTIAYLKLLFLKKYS
Test: Screening Assay for ABCG2 Inhibitors
Conditions: pH 7.4; 37 °C
Procedure: IC50 and maximal activities for inhibition of PhA accumulation were determined from dose-response curves. The accumulation of PhA, a fluorescent ABCG2 substrate, formed the basis of the assay for inhibitors of ABCG2 activity. NCI-H460/MX20 cells were transferred to black-walled, clear-bottomed 384-well polylysine-coated assay plates (Corning) and allowed to attach for several hours. PhA was added, immediately followed by compounds or vehicle (DMSO/PBS) control and incubated for an additional 18 h. After removal of medium and washing with PBS containing Ca2+ and Mg2+, fluorescence intensity was read on a Tecan Safire fluorescence plate reader in bottom read mode (395 nm excitation, 670 nm emission). Each plate had control wells containing Fumitremorgin C (FTC). Data were normalized to FTC and reported as the percentage of FTC fluorescence. Apparent IC50 values were calculated from dose-response data using SigmaPlot (SPSS, Inc., Chicago) 4-parameter logistic nonlinear regression analysis.

Compound | IC50 [µM]
CC1CCC2(OC1)OC1C(O)C3C4CCC5CC(OC6OC(CO)C(OC7OC(CO)C(O)C(OC8OCC(O)C(O)C8O)C7OC7OC(CO)C(O)C(OC8OC(CO)C(O)C(O)C8O)C7O)C(O)C6O)C(O)CC5(C)C4CCC3(C)C1C2C (stereo not given) [Digitonin] | 9.7
CC(C)C1(NC(=O)C2CC3c4cccc5[nH]cc(c45)CC3N(C)C2)OC2(O)C3CCCN3C(=O)C(Cc3ccccc3)N2C1=O (stereo not given) [Dihydroergocristine] | 11.8
Cc1[nH]n(C(=O)c2ccncc2)c(=O)c1N=Nc1ccc2ccccc2c1 [NSC303769] | 5.8
Cc1ccc(NC(=O)c2cc3ccccc3cc2O)c(C)c1 [NSC306698] | 5.4
NN=C1C(OC(=O)Nc2cccc(Cl)c2)=Nc2ccccc21 [NSC320852] | 4.6
